Measurements reported in ChEMBL document CHEMBL3865816, “Design, synthesis and biological evaluation of novel azaspiro analogs of linezolid as antibacterial and antitubercular agents” (Eur J Med Chem, 2016).
Converted amounts (≈) assume the structure as drawn.

What was measured:
Assay type in all cases: functional
[1] = test system: Staphylococcus aureus; test: Antibacterial activity against Staphylococcus aureus NCIM 2079 at 10 ug/ml measured after 12 hrs by spectrophotometric method; settings: NCIM 2079, 12 h
[2] = test system: Escherichia coli; test: Antibacterial activity against Escherichia coli NCIM 2688 at 3 ug/ml measured after 8 hrs by spectrophotometric method; settings: NCIM 2688, 8 h
[3] = test system: Escherichia coli; test: Antibacterial activity against Escherichia coli NCIM 2688 measured after 8 hrs by spectrophotometric method; settings: NCIM 2688, 8 h
[4] = test system: Pseudomonas aeruginosa; test: Antibacterial activity against Pseudomonas aeruginosa NCIM 2036 measured after 8 hrs by spectrophotometric method; settings: NCIM 2036, 8 h
[5] = test system: Staphylococcus aureus; test: Antibacterial activity against Staphylococcus aureus NCIM 2079 at 30 ug/ml measured after 12 hrs by spectrophotometric method; settings: NCIM 2079, 12 h
[6] = test system: Pseudomonas aeruginosa; test: Antibacterial activity against Pseudomonas aeruginosa NCIM 2036 at 3 ug/ml measured after 8 hrs by spectrophotometric method; settings: NCIM 2036, 8 h
[7] = test system: Pseudomonas aeruginosa; test: Antibacterial activity against Pseudomonas aeruginosa NCIM 2036 at 30 ug/ml measured after 8 hrs by spectrophotometric method; settings: NCIM 2036, 8 h
[8] = test system: Staphylococcus aureus; test: Antibacterial activity against Staphylococcus aureus NCIM 2079 measured after 12 hrs by spectrophotometric method; settings: NCIM 2079, 12 h
[9] = test system: Mycobacterium tuberculosis; test: Antitubercular activity against dormant stage Mycobacterium tuberculosis H37Ra at 30 ug/ml measured after 12 days by XTT assay; settings: 288 h
[10] = test system: Bacillus subtilis; test: Antibacterial activity against Bacillus subtilis NCIM 2010 at 3 ug/ml measured after 12 hrs by spectrophotometric method; settings: NCIM 2010, 12 h
[11] = test system: Escherichia coli; test: Antibacterial activity against Escherichia coli NCIM 2688 at 30 ug/ml measured after 8 hrs by spectrophotometric method; settings: NCIM 2688, 8 h
[12] = test system: Mycobacterium tuberculosis; test: Antitubercular activity against dormant stage Mycobacterium tuberculosis H37Ra at 10 ug/ml measured after 12 days by XTT assay; settings: 288 h
[13] = test system: Bacillus subtilis; test: Antibacterial activity against Bacillus subtilis NCIM 2010 measured after 12 hrs by spectrophotometric method; settings: NCIM 2010, 12 h
[14] = test system: Mycobacterium tuberculosis; test: Antitubercular activity against dormant stage Mycobacterium tuberculosis H37Ra measured after 12 days by XTT assay; settings: 288 h
[15] = test system: Staphylococcus aureus; test: Antibacterial activity against Staphylococcus aureus NCIM 2079 at 3 ug/ml measured after 12 hrs by spectrophotometric method; settings: NCIM 2079, 12 h
[16] = test system: Bacillus subtilis; test: Antibacterial activity against Bacillus subtilis NCIM 2010 at 10 ug/ml measured after 12 hrs by spectrophotometric method; settings: NCIM 2010, 12 h
[17] = test system: Escherichia coli; test: Antibacterial activity against Escherichia coli NCIM 2688 at 10 ug/ml measured after 8 hrs by spectrophotometric method; settings: NCIM 2688, 8 h
[18] = test system: Bacillus subtilis; test: Antibacterial activity against Bacillus subtilis NCIM 2010 at 30 ug/ml measured after 12 hrs by spectrophotometric method; settings: NCIM 2010, 12 h
[19] = test system: Mycobacterium tuberculosis; test: Antitubercular activity against dormant stage Mycobacterium tuberculosis H37Ra at 3 ug/ml measured after 12 days by XTT assay; settings: 288 h
[20] = test system: Pseudomonas aeruginosa; test: Antibacterial activity against Pseudomonas aeruginosa NCIM 2036 at 10 ug/ml measured after 8 hrs by spectrophotometric method; settings: NCIM 2036, 8 h

| Structure (SMILES) | inhibition at 10 µg/mL [1] | inhibition at 3 µg/mL [2] | IC50 [3] | MIC [3] | IC50 [4] | MIC [4] | inhibition at 30 µg/mL [5] | inhibition at 3 µg/mL [6] | inhibition at 30 µg/mL [7] | IC50 [8] | MIC [8] | inhibition at 30 µg/mL [9] | inhibition at 3 µg/mL [10] | inhibition at 30 µg/mL [11] | inhibition at 10 µg/mL [12] | IC50 [13] | MIC [13] | IC50 [14] | MIC [14] | inhibition at 3 µg/mL [15] | further results |
| --- | --- | --- | --- | --- | --- | --- | --- | --- | --- | --- | --- | --- | --- | --- | --- | --- | --- | --- | --- | --- | --- |
| O=C1O[C@@H](CNS(=O)(=O)c2cc(Cl)cc(Cl)c2)CN1c1ccc(N2CC3(COC3)C2)c(F)c1 | 50.6% | 36.8% | > 100 µg/mL | > 100 µg/mL | > 100 µg/mL | > 100 µg/mL | 74.2% | 42.2% | 86.6% | > 100 µg/mL | > 100 µg/mL | 23.2% | 51% | 25.4% | -5.84% | > 100 µg/mL | > 100 µg/mL | > 100 µg/mL | > 100 µg/mL | 55.1% | inhibition at 10 µg/mL [16]: 56.1%; inhibition at 10 µg/mL [17]: 23.5%; inhibition at 30 µg/mL [18]: 66.6%; inhibition at 3 µg/mL [19]: 8.02%; inhibition at 10 µg/mL [20]: 67.2% |
| O=C1O[C@@H](CNS(=O)(=O)c2cccc(C(F)(F)F)c2)CN1c1ccc(N2CC3(COC3)C2)c(F)c1 | 17.3% | 90.5% | 0.57 µg/mL (≈ 1.11 µM) | 3.03 µg/mL (≈ 5.88 µM) | > 100 µg/mL | > 100 µg/mL | 19.5% | 0.66% | 70.8% | > 100 µg/mL | > 100 µg/mL | 25.1% | 11.2% | 99.5% | -59% | > 100 µg/mL | > 100 µg/mL | > 100 µg/mL | > 100 µg/mL | -2.71% | inhibition at 10 µg/mL [16]: 17.5%; inhibition at 10 µg/mL [17]: 97.5%; inhibition at 30 µg/mL [18]: 25%; inhibition at 3 µg/mL [19]: 5.38%; inhibition at 10 µg/mL [20]: 43% |
| O=C1O[C@@H](CNC(=O)C23CC4CC(CC(C4)C2)C3)CN1c1ccc(N2CC3(COC3)C2)c(F)c1 | 55.5% | 36.8% | > 100 µg/mL | > 100 µg/mL | > 100 µg/mL | > 100 µg/mL | 71.1% | 49.6% | 40.7% | > 100 µg/mL | > 100 µg/mL | 22.1% | 51.3% | 60.1% | 4.41% | > 100 µg/mL | > 100 µg/mL | > 100 µg/mL | > 100 µg/mL | 54.9% | inhibition at 10 µg/mL [16]: 62%; inhibition at 10 µg/mL [17]: 43.3%; inhibition at 30 µg/mL [18]: 69.8%; inhibition at 3 µg/mL [19]: 9.46%; inhibition at 10 µg/mL [20]: 39.2% |
| O=C1O[C@@H](CNC(=S)Nc2cccc(C(F)(F)F)c2)CN1c1ccc(N2CC3(COC3)C2)c(F)c1 | 79.2% | 93.3% | 0.49 µg/mL (≈ 0.96 µM) | 2.41 µg/mL (≈ 4.72 µM) | > 100 µg/mL | > 100 µg/mL | 94.5% | 45.2% | 79.6% | > 100 µg/mL | > 100 µg/mL | 78% | 65.9% | 96.3% | 44.5% | > 100 µg/mL | > 100 µg/mL | > 100 µg/mL | > 100 µg/mL | 64.1% | inhibition at 10 µg/mL [16]: 80.2%; inhibition at 10 µg/mL [17]: 95.8%; inhibition at 30 µg/mL [18]: 97.2%; inhibition at 3 µg/mL [19]: 10.7%; inhibition at 10 µg/mL [20]: 67% |
| O=C(NC[C@H]1CN(c2ccc(N3CC4(COC4)C3)c(F)c2)C(=O)O1)c1ccc(C(F)(F)F)cc1 | 84.4% | 33.8% | > 100 µg/mL | > 100 µg/mL | 1.19 µg/mL (≈ 2.48 µM) | 18.1 µg/mL (≈ 37.8 µM) | 92.2% | 74.9% | 98.3% | 0.67 µg/mL (≈ 1.4 µM) | 22.3 µg/mL (≈ 46.5 µM) | -20.7% | 65.4% | 74.1% | -4.6% | > 100 µg/mL | > 100 µg/mL | > 100 µg/mL | > 100 µg/mL | 78.4% | inhibition at 10 µg/mL [16]: 78.8%; inhibition at 10 µg/mL [17]: 59.7%; inhibition at 30 µg/mL [18]: 95.8%; inhibition at 3 µg/mL [19]: -10.1%; inhibition at 10 µg/mL [20]: 84.9% |
| CC(C)NC(=S)NC[C@H]1CN(c2ccc(N3CC4(COC4)C3)c(F)c2)C(=O)O1 | 75.2% | 46.7% | > 100 µg/mL | > 100 µg/mL | 1.27 µg/mL (≈ 3.11 µM) | 32.3 µg/mL (≈ 79 µM) | 93% | 72.6% | 91.4% | > 100 µg/mL | > 100 µg/mL | 48.8% | 82% | 91.3% | 7.27% | 0.64 µg/mL (≈ 1.57 µM) | 6.04 µg/mL (≈ 14.8 µM) | > 100 µg/mL | > 100 µg/mL | 58.8% | inhibition at 10 µg/mL [16]: 95.1%; inhibition at 10 µg/mL [17]: 58.9%; inhibition at 30 µg/mL [18]: 99.3%; inhibition at 3 µg/mL [19]: -11.7%; inhibition at 10 µg/mL [20]: 83.8% |
| O=C(NC[C@H]1CN(c2ccc(N3CC4(COC4)C3)c(F)c2)C(=O)O1)c1cccnc1 | 85.9% | 84.8% | 0.67 µg/mL (≈ 1.62 µM) | 8.33 µg/mL (≈ 20.2 µM) | > 100 µg/mL | > 100 µg/mL | 96.2% | 40.9% | 56.3% | 1.03 µg/mL (≈ 2.5 µM) | 18.3 µg/mL (≈ 44.3 µM) | 63.1% | 60.8% | 94.8% | 5.21% | > 100 µg/mL | > 100 µg/mL | > 100 µg/mL | > 100 µg/mL | 78.2% | inhibition at 10 µg/mL [16]: 77.1%; inhibition at 10 µg/mL [17]: 90.5%; inhibition at 30 µg/mL [18]: 99.2%; inhibition at 3 µg/mL [19]: 3.2%; inhibition at 10 µg/mL [20]: 49.5% |
